# Source: US5173493A, “Pyridoindole derivatives and processes for preparation thereof” (Fujisawa Pharmaceutical Company, Ltd., priority 1988, dated 1992)
# Like-named read-outs stand apart in the source and are kept apart here.
# How the values were obtained:
# Benzold-Jarisch reflex = assay: Inhibition of Benzold-Jarisch reflex; format: in vivo, Male Sprague-Dawley rats; conditions: Rattus norvegicus, 5 min, iv
# Description: (A) Inhibition of Benzold-Jarisch reflex
# Male Sprague-Dawley rats weighing 260-350 g were anesthetized intraperitoneally with 1.25 g/kg urethane.
# Blood pressure and heart rate were monitored continuously from the left common carotid artery with a pressure transducer. A right femoral vein was connulated for the intravenous injection (iv) of drugs. The trachea was also connulated to ease the respiration.
# Rats were given a rapid bolus injection of 2-methyl-5-hydroxytryptamine (32 μg/kg, iv) to establish the control bradycardic response. Once the heart rate returned to base line, the rats were given the test compound (iv), followed by 5-minutes interval and another bolus injection of 2-methyl-5-hydroxytryptamine (32 μg/kg, iv).
# [1] = test system: Cisplatin-induced vomiting; assay: Inhibition of Cisplatin-induced vomiting; format: in vivo, female beagles; conditions: Canis lupus familiaris; intravenously twice, 10 minutes prior to and 90 minutes after Cisplatin (3.2 mg/kg, iv); observed up to 5 hours
# Description: (B) Inhibition of Cisplatin-induced vomiting
# Nonfasted female beagles weighing about 10 kg were administered test compound or saline intravenously twice 10 minutes prior to and 90 minutes after Cisplatin dosing (3.2 mg/kg, iv).
# Cisplatin was dissolved in 0.9% warm saline with a final concentration of 3 mg/ml and used immediately.
# [2] = inhibition of bradycardic response to 2-methyl-5-hydroxytryptamine (32 μg/kg, iv), anesthetized rats, read-out: ED50
smiles,measurement,setting,value
"Cc1[nH]cnc1CC1CCc2c(C)c3ccccc3n2C1=O.Cl (single isomer, unassigned; (+)) [Compound 3, (+)-8,9-Dihydro-10-methyl-7-[(5-methyl-1H-imidazol-4-yl)methyl]pyrido[1,2-a]indol-6(7H)-one hydrochloride]",ED50,Benzold-Jarisch reflex; [2],0.9 µg/kg
same,ED50,[1],1.1 µg/kg
"Cc1[nH]cnc1C(O)C1CCc2c(C)c3ccccc3n2C1=O.O=C(O)/C=C\C(=O)O (single isomer, unassigned; isomer b) [Compound 1, 8,9-Dihydro-7-[(hydroxy)(5-methyl-1H-imidazol-4-yl)methyl]-10-methylpyrido[1,2-a]indol-6(7H)-one maleate (isomer B)]",ED50,Benzold-Jarisch reflex; [2],5.9 µg/kg
"Cc1c2n(c3ccccc13)C(=O)C(Cc1c[nH]cn1)CC2 (centres unmarked) [Compound 2, 8,9-Dihydro-7-[(1H-imidazol-4-yl)methyl]-10-methylpyrido[1,2-a]indol-6(7H)-one]",ED50,Benzold-Jarisch reflex,1.8 µg/kg
"Cc1[nH]cnc1CC1(C)CCc2c(C)c3ccccc3n2C1=O (centres unmarked) [Compound 4, 8,9-Dihydro-7,10-dimethyl-7-[(5-methyl-1H-imidazol-4-yl)methyl]pyrido[1,2-a]indol-6(7H)-one]",ED50,Benzold-Jarisch reflex; [2],1.1 µg/kg
